From ChEMBL document CHEMBL1201862, “PubChem BioAssay data set” (2004) come the findings set out here.

Among the test systems are A498; ACHN; EKVX; HCC 2998; HCT-116; HL-60; MCF7; MDA-MB-231; MDA-N; Malme-3M; OVCAR-3; OVCAR-4; OVCAR-8; SF-268; SF-295; SF-539; SN12C; SNB-19; U-251.
Holding throughout (assay): NCI tumour cell line growth inhibition, 48 h

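Tested at 5 concentrations; 48 h exposure; 96-well plates; endpoints linearly interpolated, else capped at highest concentration. GI50: concentration for 50% inhibition of growth.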 The source made the active and inactive calls. Cut-off read from the data, not from the text of the source: active = GI50 up to about 1.1 µM and inactive = higher.

Turning to `C=CCN1C(N)=C(C#N)C(C#N)(C#N)C1CCC` (configuration not stated), the GI50 in the assay with A498 was > 100 µM (inactive); in the assay on ACHN it was > 100 µM (inactive); in the assay on EKVX it was 47.4 µM (inactive); in the assay on HCC 2998, > 100 µM (inactive); in the assay on HCT-116 it was > 100 µM (inactive); in the assay with HL-60, > 100 µM (inactive). Further, the GI50 in the assay with MCF7, with MDA-MB-231, in the assay with MDA-N, in the assay on Malme-3M, in the assay with OVCAR-3 and in the assay on OVCAR-4 was > 100 µM (inactive) in each case. In addition, the GI50 in the assay on OVCAR-8, in the assay on SF-268, in the assay with SF-295, in the assay with SF-539, in the assay with SN12C and in the assay on SNB-19 was > 100 µM (inactive) in each case. For the same molecule, the GI50 with U-251 is > 100 µM (inactive).

As to `COc1ccc(Nc2nc3ccccc3nc2C(=O)O)cc1OC`, the GI50 with A498 was 21.3 µM (inactive); in the assay on ACHN it was 44.8 µM (inactive); in the assay with EKVX it was 61.7 µM (inactive); with HCC 2998, 71.6 µM (inactive); in the assay with HCT-116, > 100 µM (inactive); in the assay with HL-60, 88.1 µM (inactive). Further, the GI50 was 40.3 µM (inactive) in the assay with MCF7; 56.2 µM (inactive) in the assay on MDA-MB-231; > 100 µM (inactive) in the assay on MDA-N; 34 µM (inactive) in the assay on Malme-3M; 40.2 µM (inactive) in the assay with OVCAR-3; > 100 µM (inactive) with OVCAR-8. Besides, the GI50 with SF-268 was 41 µM (inactive); in the assay on SF-295, 33.2 µM (inactive); in the assay on SF-539 it was > 100 µM (inactive); in the assay with SN12C it was 48.1 µM (inactive); in the assay with SNB-19 it was 73.1 µM (inactive); with U-251, > 100 µM (inactive).

In the case of `C=C1c2nc3ccccc3n2C=C(c2ccc(OC)cc2)N1c1ccc(OC)cc1`, the GI50 is 17.9 µM (inactive) in the assay on A498; 7.16 µM (inactive) in the assay with ACHN; 25.5 µM (inactive) with EKVX; 20 µM (inactive) in the assay on HCC 2998; 17.4 µM (inactive) in the assay on HCT-116; > 100 µM (inactive) in the assay with HL-60. The GI50 with MCF7 is 22 µM (inactive); in the assay on MDA-MB-231, 20 µM (inactive); with MDA-N, 22.1 µM (inactive); in the assay on Malme-3M, 11 µM (inactive); in the assay with OVCAR-3, 8.18 µM (inactive); with OVCAR-4, 7.78 µM (inactive). Moreover, the GI50 in the assay on OVCAR-8 is 7.24 µM (inactive); in the assay on SF-295 it was 11.7 µM (inactive); in the assay on SF-539 it was 7.16 µM (inactive); in the assay with SN12C, 17.8 µM (inactive); with SNB-19 it was 4.25 µM (inactive); with U-251, 9.71 µM (inactive).

With `COc1ccc(/C=C2\CC3C4CC=C5C[C@@H](O)CC[C@]5(C)C4CC[C@]3(C)C2=O)cc1OC` (some centres not stated), the GI50 is 28.6 µM (inactive) in the assay with A498; 24.5 µM (inactive) with ACHN; 28.2 µM (inactive) in the assay on EKVX; 14.9 µM (inactive) in the assay on HCC 2998; 24 µM (inactive) in the assay on HCT-116; 13.1 µM (inactive) with HL-60. Also, the GI50 was 23.3 µM (inactive) in the assay on MCF7; 25.8 µM (inactive) in the assay on MDA-MB-231; 42.2 µM (inactive) in the assay with MDA-N; 27.2 µM (inactive) in the assay on Malme-3M; 5.09 µM (inactive) in the assay on OVCAR-3; 21.8 µM (inactive) with OVCAR-4. Also, the GI50 in the assay with OVCAR-8 was 43.3 µM (inactive); with SF-268, 64.7 µM (inactive); in the assay with SF-295 it was 11.4 µM (inactive); in the assay on SF-539, 57.8 µM (inactive); in the assay with SN12C, 23.1 µM (inactive); with SNB-19, 62.4 µM (inactive). The GI50 in the assay with U-251 was 26.2 µM (inactive).

As to `O=c1oc2c(ccc3c(O)cccc32)c2c1CCCC2`, the GI50 is 27.7 µM (inactive) with A498; 26.8 µM (inactive) with ACHN; 33.8 µM (inactive) in the assay with EKVX; 5.61 µM (inactive) in the assay with HCC 2998; > 100 µM (inactive) in the assay on HCT-116; > 100 µM (inactive) in the assay on HL-60. In addition, the GI50 in the assay with MCF7 was 42.2 µM (inactive); in the assay on MDA-MB-231 it was 17.4 µM (inactive); with MDA-N, > 100 µM (inactive); in the assay on Malme-3M it was 68.9 µM (inactive); in the assay on OVCAR-3, > 100 µM (inactive); with OVCAR-4, > 100 µM (inactive). The GI50 with OVCAR-8 is 30.6 µM (inactive); in the assay with SF-268, 15 µM (inactive); in the assay on SF-295, 14.5 µM (inactive); with SF-539, 22.2 µM (inactive); in the assay with SN12C, > 100 µM (inactive); in the assay with SNB-19 it was 27.7 µM (inactive). For the same molecule, the GI50 in the assay with U-251 is 15 µM (inactive).

As to `O=C(O)c1cc2c(cc1CC(Cc1ccc3c(c1)CCC3)C(=O)O)CCC2` (configuration not stated), the GI50 in the assay with A498, with ACHN, in the assay on EKVX, with HCC 2998, with HCT-116 and in the assay on HL-60 was > 100 µM (inactive) throughout. Besides, the GI50 in the assay with MCF7, in the assay on MDA-MB-231, in the assay on MDA-N, in the assay on Malme-3M, in the assay on OVCAR-3 and with OVCAR-4 was > 100 µM (inactive) in each case. The GI50 with OVCAR-8, in the assay on SF-268, in the assay on SF-295, with SF-539, in the assay on SN12C and with SNB-19 was > 100 µM (inactive) throughout. Also, the GI50 in the assay on U-251 is > 100 µM (inactive).

With `CCN(CC)c1ccc2cc(-c3nnc(-c4ccccc4)o3)c(=O)oc2c1`, the GI50 in the assay with A498 is 45.9 µM (inactive); in the assay with ACHN, 18.2 µM (inactive); with EKVX it was 59.8 µM (inactive); in the assay with HCC 2998, 2.2 µM (inactive); in the assay with HCT-116, 19.9 µM (inactive); with HL-60, 16.6 µM (inactive). Also, the GI50 with MCF7 was 22.5 µM (inactive); with MDA-MB-231, 22.9 µM (inactive); in the assay on MDA-N, 48.5 µM (inactive); in the assay with Malme-3M, > 66.8 µM (inactive); in the assay on OVCAR-3 it was 7.05 µM (inactive); in the assay with OVCAR-4, 39.4 µM (inactive). For the same molecule, the GI50 was 28.1 µM (inactive) in the assay on OVCAR-8; 28 µM (inactive) in the assay on SF-268; 17.3 µM (inactive) with SF-295; 13 µM (inactive) in the assay with SF-539; 31.4 µM (inactive) in the assay on SN12C; 25.9 µM (inactive) with SNB-19. Also, the GI50 in the assay on U-251 is 11.3 µM (inactive).

`COc1ccc(Oc2ccc3cc4c(cc3c2O)OCO4)c2cc(C)oc12`: the GI50 in the assay on A498 is 38.3 µM (inactive); with ACHN, 35.6 µM (inactive); with EKVX, 28.7 µM (inactive); with HCC 2998 it was 23.2 µM (inactive); in the assay with HCT-116, 26.4 µM (inactive); with HL-60 it was 25.1 µM (inactive). The GI50 in the assay with MCF7 was 34 µM (inactive); in the assay on MDA-MB-231, 33.9 µM (inactive); in the assay with MDA-N, 29.6 µM (inactive); in the assay with Malme-3M it was 24.2 µM (inactive); in the assay with OVCAR-3, 28.8 µM (inactive); in the assay with OVCAR-4, 22.4 µM (inactive). In addition, the GI50 was 37.5 µM (inactive) with OVCAR-8; 36 µM (inactive) in the assay on SF-268; 33.5 µM (inactive) in the assay with SF-295; 20.2 µM (inactive) with SF-539; 29.6 µM (inactive) with SN12C; 36.9 µM (inactive) in the assay with SNB-19.

With `COc1cc(/C=C\C(=O)O)ccc1OCc1ccccc1`, the GI50 with A498, with ACHN, in the assay with EKVX, in the assay with HCC 2998, in the assay with HCT-116 and in the assay with HL-60 was > 100 µM (inactive) in each case. In addition, the GI50 is > 100 µM (inactive) in the assay with MCF7; > 100 µM (inactive) with MDA-MB-231; > 100 µM (inactive) in the assay on MDA-N; 0.053 µM (active) with Malme-3M; > 100 µM (inactive) with OVCAR-3; > 100 µM (inactive) with OVCAR-8. The GI50 in the assay with SF-268, with SF-295, in the assay on SF-539, with SN12C, in the assay with SNB-19 and in the assay on U-251 was > 100 µM (inactive) in each case.

With `CSCC[C@H]1C(=O)N=C(N)N1C(=O)OCc1ccccc1`, the GI50 is 72.9 µM (inactive) in the assay on A498; 34.7 µM (inactive) in the assay on ACHN; 53.6 µM (inactive) with EKVX; 95.9 µM (inactive) in the assay with HCC 2998; 17.6 µM (inactive) in the assay with HCT-116; 14.5 µM (inactive) in the assay with HL-60. Besides, the GI50 was 28.8 µM (inactive) with MCF7; 66.5 µM (inactive) in the assay with MDA-MB-231; 28.9 µM (inactive) in the assay on MDA-N; 33.3 µM (inactive) in the assay on Malme-3M; 38.7 µM (inactive) with OVCAR-3; 46.5 µM (inactive) in the assay on OVCAR-4. Also, the GI50 with OVCAR-8 was 29 µM (inactive); with SF-268 it was 38.4 µM (inactive); with SF-295, 61.7 µM (inactive); in the assay with SN12C, 31 µM (inactive); with SNB-19, > 100 µM (inactive); with U-251 it was 34.9 µM (inactive).

Turning to `Cc1ccc(S(=O)(=O)NC(=O)C2=C(c3ccccc3)[N-]N(C)c3nc4cccc[n+]4nc32)cc1`, the GI50 is > 100 µM (inactive) with A498; > 100 µM (inactive) in the assay on ACHN; 29.1 µM (inactive) with EKVX; > 100 µM (inactive) in the assay with HCC 2998; > 100 µM (inactive) in the assay with HCT-116; > 100 µM (inactive) with HL-60. Moreover, the GI50 with MCF7 was 49.9 µM (inactive); in the assay with MDA-MB-231 it was 50.9 µM (inactive); in the assay on MDA-N it was > 100 µM (inactive); in the assay with Malme-3M, 99.3 µM (inactive); with OVCAR-4, > 100 µM (inactive); in the assay with OVCAR-8, 51.6 µM (inactive). In addition, the GI50 in the assay with SF-268, in the assay on SF-539, with SN12C, in the assay with SNB-19 and in the assay with U-251 was > 100 µM (inactive) each time.
